What was measured:
Male C57B16 mice [1] = experiment: Tissue ICP-AES biodistribution of Mn; type: in vivo
Description: Tissue ICP-AES: Biodistribution of 5 was measured in tissues 15 and 90 min after injection of (1) 0.07 mmol/kg 5 plus 2.2 mmol/kg D-glucose, (2) 0.07 mmol/kg 5 plus saline, and (3) 0.035 mmol/kg MnCl plus 2.2 mmol/kg D-glucose into male C57B16 mice. The tissue weights were recorded and digested in aqua regia for 24 hours, the digested tissue was heated to 120° C. until evaporated and re-suspended in 0.5 M HCl. For ICP-AES, Mn, Fe, and Zn concentrations were obtained by comparing to a known metal standard.

[2] = Relaxometry (T1 and T2 at 1.5 T); type: physicochemical; conditions: 37° C.
Description: Relaxometry: Varying concentrations of 5 (0-1 mM) were incubated with 2 mM ZnCl2, and 0.6 mM human serum albumin (HSA) at 37° C. T1 and T2 measurements were obtained at 1.5 T using a Bruker relaxometer. T1 was obtained by an inversion recovery sequence (IR, first pulse=10 ms, TR=10 s, TI=10-2500 ms), and T2 by a Carr-Prucell-Meiboom-Gill (CPMG, TE/TR=5/10000 ms, NE=700).

Male C57B16 mice [3] = experiment: In vivo T1-weighted MRI of glucose-stimulated zinc secretion
Description: In Vivo MRI: Male C57B16 mice were imaged at 4.7 T and 9.4 T using Varian/Agilent scanners. Mice were anesthetized with 2-5% isofluorane/oxygen mixture and their body temperature was maintained at 37° C. using heated airflow. Two ge3d T1-weighted scans were obtained as a baseline (TE/TR=1.69/3.35 ms, Average=4, θ=20°). Mice then received 0.07 mmol/kg 5 i.v. plus 2.2 mmol/kg D-Glucose i.p. and sequential 3d T1-weighted scans were obtained for 90 minutes until clearance of the agent was evident. Images were analyzed using ImageJ, organs of interest were identified, and ROIs were measured and normalized to muscle ROIs within the same slice and time point. The change in MR signal intensity is reported as a percentage compared to pre-injection scans.

[4] = Clearance route and integrity by LC-MS of urine and bile; type: in vivo
[5] = 0.035 mmol/kg i.v. plus 2.2 mmol/kg D-glucose i.p.

| Compound | Mn accumulation in the heart (Male C57B16 mice [1]; [5]) | excretion route (tissue biodistribution of Mn) (Male C57B16 mice [1]; [5]) | longitudinal relaxivity r1 ([2]; "off" configuration (no Zn(II)/HSA)) | longitudinal relaxivity r1 ([2]; "on" configuration bound to Zn^2+ and HSA (2 mM ZnCl2, 0.6 mM HSA)) | MRI signal enhancement in organs (Male C57B16 mice [3]; 0.07 mmol/kg i.v. plus D-glucose 2.2 mmol/kg i.p., 4 minutes post injection, 9.4 T) | MRI signal enhancement in organs (Male C57B16 mice [3]; control, D-glucose not co-injected) | Mn accumulation in the heart (Male C57B16 mice [1]; 0.07 mmol/kg i.v. plus 2.2 mmol/kg D-glucose i.p.) | Mn content in tissues (biodistribution) (Male C57B16 mice [1]; 15 minutes post-injection, 0.07 mmol/kg i.v. plus 2.2 mmol/kg D-glucose i.p.) | Mn content in tissues (biodistribution) (Male C57B16 mice [1]; 90 minutes post-injection, 0.07 mmol/kg i.v. plus 2.2 mmol/kg D-glucose i.p.) | integrity during hepatobiliary clearance ([4]; LC-MS of bile) | integrity after renal filtration ([4]; LC-MS of urine) |
| --- | --- | --- | --- | --- | --- | --- | --- | --- | --- | --- | --- |
| [Cl][Mn][Cl] [MnCl2, reference compound] | Accumulation in the heart | excreted renally and more overwhelmingly via the hepatobiliary system |  |  |  |  |  |  |  |  |  |
| Mn—N-(6-methyl)-(2-(bis(pyridin-2-ylmethyl)amino)ethyl)-nicotinamido-N,N′ N′-trans-1,2-cyclohexylenediamine-triacetate [Compound 5] |  |  | 3.5 mM⁻¹ s⁻¹ | 14.1 mM⁻¹ s⁻¹ | Enhancement in the pancreas, prostate, kidneys, and liver | marginal enhancement in the prostate and pancreas | no accumulation in the heart | found primarily in the kidneys, liver, pancreas, and prostate | greatly diminished in kidney and liver tissues but accumulated in the spleen and in the prostate | degraded during hepatobiliary clearance | excreted as an intact complex after renal filtration |

Reference: US11267832B2, “Mn(II)-based sensors to detect zinc in vivo with MRI” (The Board of Regents of the University of Texas System, priority 2018, dated 2022)
